Reference: patent US6174855A, “Pharmaceutical compositions comprising thrombin inhibitors and their use in the control of wound healing processes” (AstraZeneca AB, priority 1996, dated 2001)
“And” between values parts separate entries of the source, which are not always exact repeats. Identical values can stand only once.

How the values were obtained:
[1] = test system: fibrin-related adhesions between the stomach and the liver, the intestines and the omentum; experiment: Acetic acid injury to the serosal surface of the rat stomach: formation of adhesions; type: in vivo; conditions: for Adherences score: day 7
Method: The serosal surface of the stomach of an adult anaesthetised rat was exposed in an area of 7 mm diameter to 80% acetic acid over 60 seconds. After rinsing with buffered saline solution, an osmotic minipump (Alza 2001, volume about 220 μL; pumping rate about 1 μL/h; Alza Corp.; Palo Alto, Calif., USA; prefilled with a solution of the thrombin inhibitor melagatran, 2-100 μg/mL) was implanted into the peritoneal cavity, with the outlet of the pump kept open, and delivered its content into the abdominal cavity. The wounded area was covered by a chitosan membrane or, in an alternative experiment, a gel, having a diameter several millimeters larger than that of the injured area.
The serosal surface of the stomach of an adult, anaesthetised rat was exposed in an area of 7 mm diameter to 80% acetic acid over 60 seconds. After rinsing with buffered saline, the wounded area was covered by a chitosan membrane or, in an alternative experiment, a gel, having a diameter several millimeters larger than the injured area. An osmotic minipump (Alza 2001, volume about 220 μL; pumping rate about 1 μL/h; Alza Corp.; Palo Alto, Calif., USA; prefilled with a solution of the thrombin inhibitor melagatran, 2-100 μg/mL) was implanted subcutaneously, with the outlet of the pump kept open, delivering its content into the adjacent tissue. […]

[2] = Plasma concentration of inogatran during intraperitoneal minipump infusion; type: in vivo, rat
Source text: (§1) The serosal surfaces of the stomachs of adult, anaesthetised rats were exposed in an area 7 mm diameter to 80% acetic acid over 60 seconds and then rinsed with buffered saline.

[3] = Bleeding observations during inogatran minipump infusion; type: in vivo, rat; conditions: day 7
Source text: as §1

[4] = Plasma concentration of inogatran during intraperitoneal minipump infusion; type: in vivo, rat; conditions: for Mean Plasma Conc.: two rats
[5] = test system: adhesions between injured area and adjacent muscles, muscle fascia, vessels, nerves and skin; experiment: Surgical removal of thigh muscle fascia in rat: adhesions inspected after 10 days; type: in vivo; conditions: subcutaneous minipump 0.2×100μg/mL, versus untreated animals
Source text: An incision was made in the thigh through the skin into the muscle tissue in an anaesthetised adult rat, and the muscle fascia was surgically removed in a defined area (about 10×15 mm). The wound was sutured, and eventually opened for inspection after 10 days. Numerous adhesions were recognized, and the presence of granulation tissue were noticed to connect and lock the injured area to adjacent muscles, muscle fascia, vessels and nerves as well as to the skin.
An incision was made in the thigh through the skin into the muscle tissue in an anaesthetised adult rat and the muscle fascia was surgically removed in a defined area (about 10×15 mm). The muscle fascia was covered by a chitosan membrane or, in an alternative experiment, a gel, to which was connected a tube from an osmotic minipump, which had been implanted subcutaneously (Alza 2001, total volume about 220 μL; pumping rate about 1 μL/h; Alza Corp.; Palo Alto, Calif., USA; prefilled with a solution of the thrombin inhibitor melagatran, 0.2×100μg/mL). The wound was then sutured, and eventually opened and inspected after 10 days.

[6] = infusion rate 1*10 μL/h, 658 μg/h
[7] = infusion rate 2*10 μL/h, 1317 μg/h

For hirudin, the “fibrin network or strands of granulation tissue between the stomach and the liver, the intestines and the omentum” value ([1]; intraperitoneal minipump for a week, wound covered by hyaluronan or chitosan membrane, up to 10 days) was “No fibrin network or strands of granulation tissue could be detected”.

In the case of `N=C(N)NCCCNC(=O)[C@@H]1CCCCN1C(=O)[C@@H](CC1CCCCC1)NCC(=O)O` [inogatran, HOOC--CH2 --(R)Cha-Pic-Nag-H], the Adherences score ([1]; infusion rate 1*1 μL/h, 66 μg/h) is reported as 3 and 4, the Adherences score [1, 6] is reported as 0 and the Adherences score ([1]; infusion rate 2*1 μL/h, 132 μg/h) is reported as 2. For the same molecule, the Adherences score [1, 7] was 0, the “formation of adhesions, dose dependence” value ([1]; intraperitoneal minipump(s) 65.86 μg/μL, 1 to 20 μL/h, for a week) was “prevented in a dose-response related manner” and the “Plasma Conc.” value ([2]; infusion rate 1*1 μL/h, 66 μg/h (124 and 142 μg/kg/h), day 1) was 580 nM and 610 nM. For the same molecule, the “Plasma Conc.” value ([2]; infusion rate 1*1 μL/h, 66 μg/h (124 and 142 μg/kg/h), day 7) was 170 nM and 190 nM, the “Plasma Conc.” value ([2]; infusion rate 1*10 μL/h, 658 μg/h (1327 and 1351 μg/kg/h), day 7) was 1880 nM and 1790 nM and the “Plasma Conc.” value ([2]; infusion rate 2*1 μL/h, 132 μg/h (269 and 248 μg/kg/h), day 1) was 470 nM and 460 nM. The “Plasma Conc.” value ([2]; infusion rate 4*1 μL/h, 264 μg/h (588 and 558 μg/kg/h), day 1) was 1270 nM and 810 nM, the “Plasma Conc.” value ([2]; infusion rate 4*1 μL/h, 264 μg/h (588 and 558 μg/kg/h), day 2) was 470 nM and 890 nM and the “Plasma Conc.” value ([2]; infusion rate 4*1 μL/h, 264 μg/h (588 and 558 μg/kg/h), day 7) was 570 nM and 870 nM. For the same molecule, the “Mean Plasma Conc.” value ([2]; infusion rate 4*1 μL/h, 264 μg/h, two rats, day 7) was 720 nM, the bleeding observation [3, 6] was “Minor Tendency to Bleed” and the bleeding observation [3, 7] was “Diffuse Bleeding”. The “Mean Plasma Conc.” value ([4]; infusion rate 1*1 μL/h, 66 μg/h, day 7) was 180 nM, the “Mean Plasma Conc.” value ([4]; infusion rate 1*10 μL/h, 658 μg/h, day 7) was 1840 nM and the “Plasma Conc.” value ([4]; infusion rate 2*1 μL/h, 132 μg/h (269 and 248 μg/kg/h), day 7) was 240 nM and 370 nM. The “Mean Plasma Conc.” value ([4]; infusion rate 2*1 μL/h, 132 μg/h, day 7) was 310 nM, the “Plasma Conc.” value ([4]; infusion rate 2*10 μL/h, 1317 μg/h (2761 μg/kg/h), day 1) was 4440 nM and the “Plasma Conc.” value ([4]; infusion rate 2*10 μL/h, 1317 μg/h (2761 μg/kg/h), day 2) was 2820 nM. The “Plasma Conc.” value ([4]; infusion rate 2*10 μL/h, 1317 μg/h (2761 μg/kg/h), day 7) was 5560 nM.

For “streptokinase: fibrinolytic agent, purchased from Sigma Chemical Co”, the “fibrin-platelet network or strands of granulation tissue between the stomach and the liver, the intestines and the omentum” value ([1]; intraperitoneal minipump, outlet connected to surface of chitosan membrane (or gel), up to 10 days) was “No fibrin-platelet network nor any strands of granulation tissue could be detected” and the “fibrin network or strands of newly formed granulation tissue connecting the stomach with the liver, the intestines and the omentum” value ([1]; minipump in abdominal cavity, outlet free and open, wound covered by chitosan membrane or gel, up to 10 days) was “No fibrin network, nor any strands of newly formed granulation tissue, could be detected”.

For `N=C(N)c1ccc(CNC(=O)[C@@H]2CCN2C(=O)[C@H](NCC(=O)O)C2CCCCC2)cc1` [melagatran, HOOC--CH2 --(R)Cgl-Aze-Pab-H], the “bridging tissue (adhesions) between the stomach and the liver, the intestines and the omentum” value ([1]; 100 μL of 100-500 μg/mL solution dripped daily onto chitosan membrane or gel, after 2 to 5 days) was “absolutely no bridging tissue”, the “fibrin network or strands of granulation tissue between the stomach and the liver, the intestines and the omentum” value ([1]; intraperitoneal minipump 2-100 μg/mL, outlet connected to chitosan membrane or gel, up to 10 days) was “No fibrin network or strands of granulation tissue could be detected” and the “fibrin network or strands of granulation tissue between the stomach and the liver, the intestines and the omentum” value ([1]; intraperitoneal minipump 2-100 μg/mL, outlet open into abdominal cavity, wound covered by chitosan membrane or gel, up to 10 days) was “No fibrin network, nor any strands of granulation tissue, could be detected”. For the same molecule, the “adhesions between the stomach and the liver, the intestines and the omentum” value ([1]; minipump in peritoneal cavity, 2-100 μg/mL, about 1 μL/h, no polysaccharide, up to 10 days) was “only scattered, delicate adhesions”, the “fibrin network or strands of granulation tissue between the stomach and the liver, the intestines and the omentum” value ([1]; subcutaneous minipump 2-100 μg/mL, outlet open, wound covered by chitosan membrane or gel, up to 14 days) was “No fibrin network, nor any strands of granulation tissue, could be detected” and the “severity and dimensions of the adhesions formed between adjacent structures” value ([5]; tube connected to chitosan membrane or gel over the muscle fascia) was “strikingly reduced”. For the same molecule, the “granulation tissue connecting and locking the injured area to adjacent structures” value ([5]; tube connected to chitosan membrane or gel) was “largely not connecting”.
